Where a SMILES comes first, the peptide text is derived from it.
Row | SMILES | pKa (acidic group) | pKa (basic group)
1 | OC[C@H]1O[C@@H]2NC(=S)O[C@@H]2[C@H]1O | 9.48 | 
2 | Cc1cccc(O)c1 | 10 | 
3 | Oc1ccc(OCc2ccccc2)cc1 | 10.5 | 
4 | COC1CC2CCN1CC2 (configuration not stated) |  | 8.87
5 | O=C(O)c1cccc(C2CC2)c1 | 4.28 | 
6 | COc1ccc(C(O)CN)cc1 (configuration not stated) |  | 9.02
7 | CCCCCCCCCCCCN(CCO)CC(O)CC (configuration not stated) |  | 6.4
8 | CN1c2ccccc2Nc2ccc(O)cc21 | 10.1 | 1
9 | O=C([O-])CCCc1c[nH]cn1 |  | 7.62
10 | CCCCSCCN |  | 8.37
11 | SCC[NH2+]Cc1ccccc1 | 7.86 | 
12 | CN1CC[NH2+]CC1 |  | 5.05
13 | NC(CC(=O)[O-])C(=O)NC(CC(=O)[O-])C(=O)[O-] (stereo not drawn) (H-Asp-Asp-OH; configuration not given here) |  | 8.26
14 | O=S1(=O)C=C(O)c2ccccc21 | 7.65 | 
15 | Cc1ccc(C(C)C)c(OCCN(C)C)c1 |  | 8.66
16 | Cc1n[nH]c(C)c1C |  | 4.82
17 | NNC(=O)CC([NH2+]CCO)C(=O)[O-] (configuration not stated) |  | 2.13
18 | Nc1nc[nH]n1 | 10.7 | 4.3
19 | CC(=O)/C(=N\O)C(C)C | 9.5 | 
20 | Cc1ncc2nccnc2n1 |  | 4.87
21 | CCCn1ccnc1CO |  | 7.04
22 | CCOC(=O)C(Cc1cccc(C)c1)C(C)=O (configuration not stated) | 11.9 | 
23 | O=C1O[C@@H]([C@@H](O)CO)C(O)=C1O | 4.16 | 
24 | Cn1cc(O)[nH+]c1N | 4.9 | 

Row | SMILES | pKa (acidic group) | pKa (basic group)
25 | CN[C@H]1C[C@H]1NC |  | 8.73
26 | [NH3+]CC(=O)N1CCC[C@H]1C(=O)O | 2.95 | 
27 | CCN(CC)CCCCNc1cc[nH+]c2ccccc12 |  | 8.94
28 | C[C@H]([NH3+])C(=O)N[C@@H](Cc1c[nH]cn1)C(=O)[O-] |  | 6.76
29 | Cc1cc(S(=O)(=O)Nc2nccs2)ccc1N | 7 | 
30 | CCCN(C)c1ccccc1 |  | 5.67
31 | CC(C)C(=O)C(C)(C)CN(C)C |  | 9.3
32 | c1ccc(-c2ccn[nH]2)[nH+]c1 |  | -1.1
33 | [O-]c1cnccn1 |  | 8.23
34 | CCCn1ccnc1C=O |  | 5.15
35 | ONc1ncnc2nc[nH]c12 | 9.83 | 3.8
36 | NCCCCC(=O)[O-] |  | 10.8
37 | CNC(C)CC1CCCCC1 (configuration not stated) |  | 10.5
38 | COc1cccc(Nc2ccccc2)c1 |  | 0.37
39 | C[n+]1cccnc1[O-] |  | 2.5
40 | CN(C)CC(CSCc1ccccc1)SCc1ccccc1 (configuration not stated) |  | 7.3
41 | Oc1ccc(/N=N/c2nccs2)c(O)c1 | 1.56 | 
42 | CCNCC#CCNCC |  | 8.32
43 | O=C(O)/C=C/C(=O)c1ccccc1 | 3.34 | 
44 | O=C(O)CSc1ccc(S)cc1 | 3.77 | 
45 | Cc1cc(C)nc(NS(=O)(=O)c2ccc([NH3+])cc2)n1 |  | -0.89
46 | N#CCN |  | 5.37
47 | Cc1cc(Br)ccc1C(=O)O | 3.77 | 
48 | O=C(/C=C1/C=CC=CN1)c1ccccc1 |  | 6.08

Row | SMILES | pKa (acidic group) | pKa (basic group)
49 | CC1CNCc2ccccc2OCCOc2ccccc2CN1 (configuration not stated) |  | 9.41
50 | COc1ccc2cc(O)ccc2c1 | 9.64 | 
51 | CC(C)(C)N(O)C(=O)c1ccccc1 | 10.1 | 
52 | Fc1ccccn1 |  | -0.44
53 | CCC(O)CN(CC(C)O)C(C)(C)C (configuration not stated) |  | 9.5
54 | Oc1n[nH]c(-c2ccccc2)c1Cc1ccccc1 | 7.7 | 
55 | O=P(O)(O)C([NH2+]Cc1cccc[nH+]1)c1ccccc1O (configuration not stated) | 2.25 | 
56 | CCCCN1CCCCC1C (configuration not stated) |  | 10.7
57 | CCNc1nnc(-c2ccccc2)s1 |  | 3
58 | Cc1n[nH]c2cc(N)ccc12 |  | 4
59 | CC(C)NCCc1ccc([O-])cc1 |  | 10.8
60 | O=C1CCc2cc(Cl)c([N+](=O)[O-])cc2C1 | 11.3 | 
61 | Cc1cc(O)c(C(C)C)cc1Nc1ccc([O-])cc1 | 10.8 | 
62 | CC(C)NNC1CCN(C)CC1 |  | 9.07
63 | O=C(O)c1ccc(F)c([N+](=O)[O-])c1 | 3.37 | 
64 | O=Cc1cc(Cl)cc([N+](=O)[O-])c1O | 4.46 | 
65 | COc1ccccn1 |  | 3.34
66 | C[NH+](C)CCCNC(=O)/C=N/O | 8.68 | 
67 | O=C(O)c1cc([N+](=O)[O-])ccc1O | 2.15 | 
68 | Sc1cccc2ccc[nH+]c12 | 2.05 | 
69 | O=S(=O)([O-])c1c(O)ccc2[nH]ncc12 | 10.6 | 
70 | O=[N+]([O-])c1cccc2nc3ccccc3c(NCCCO)c12 |  | 7.55
71 | C[NH+](C)c1ccc(/C=C/c2ccncc2)cc1 |  | 3.42
72 | Oc1ccc(O)c(Cl)c1 | 8.81 | 

Row | SMILES | pKa (acidic group) | pKa (basic group)
73 | C[C@H](CCC(=O)O)[C@H]1CC[C@H]2[C@@H]3[C@@H](O)C[C@@H]4C[C@H](O)CC[C@]4(C)[C@H]3CC[C@]12C | 5.08 | 
74 | COC(=O)c1ccccc1-n1nc(O)cc1C | 12.3 | 
75 | NNC(=O)C(F)(F)C(F)(F)F | 7.92 | 
76 | O=[N+]([O-])c1ccc2[nH]cnc2c1 | 10.6 | 3.77
77 | OCCN(CCO)Cc1nc2ccccc2[nH]1 |  | 5.93
78 | Cc1ccccc1/C=C/C(=O)O | 4.5 | 
79 | c1ccc(-c2nnc(-c3ccccc3)o2)cc1 |  | 1.96
80 | [O-]\N=C1/CCCC(=N\O)/C1=N/[O-] | 12.2 | 
81 | O=[N+]([O-])c1ccc2cc(O)ccc2c1 | 7.69 | 
82 | CC(C)=CCC1=C(O)[C@](O)(CC=C(C)C)C(=O)C(C(=O)CC(C)C)=C1O | 4.22 | 
83 | CCOC(=O)Cc1ccccn1 |  | 4.25
84 | c1ccc(C2NCCS2)cc1 (configuration not stated) |  | 5.2
85 | C#C[C@]1(O)C[C@@H](C)N[C@@H]2CCCC[C@H]21 |  | 9.73
86 | CC(C)Oc1ccccc1C(=O)O | 4.24 | 
87 | C[N+](C)(C)c1cc([N+](=O)[O-])ccc1O | 4.35 | 
88 | CSCc1cccc(CSC)n1 |  | 4.19
89 | CCOC(=O)N1CCNCC1 |  | 8.28
90 | COc1ccc(-c2cnc(-c3ccc([NH3+])cc3)o2)cc1 |  | 0.27
91 | OCCCc1ccncc1 |  | 5.9
92 | CCCCCCCCCCCCN(CC(C)O)CC(O)CC (configuration not stated) |  | 6.2
93 | O=c1ccc2ccc(O)c(O)c2o1 | 6.9 | 
94 | Cn1c([O-])[nH+]c2cnc([O-])nc21 |  | 8.74
95 | O=C(O)Cc1c[nH]c2ccccc12 | 4.39 | 
96 | NCCCc1cccnc1 |  | 10.1

Row | SMILES | pKa (acidic group) | pKa (basic group)
97 | CC[NH+](CC)CCCC(C)Nc1ccnc2ccc(OC)cc12 (configuration not stated) |  | 8.7
98 | CC1(C)N=C(C(=O)CC(=O)C(F)(F)F)C(C)(C)N1O | 4.66 | 
99 | C[NH+](C)Cc1cc(-c2ccccc2)cc(C[NH+](C)C)c1O | 5.65 | 
100 | C[C@@H]1CCN2CC[C@H](O)[C@H]12 |  | 10.9
101 | CCCCCCNCCC(=O)[O-] |  | 10.6
102 | Nc1cc[nH+]c([O-])n1 |  | 4.61
103 | C=CC[NH2+]CCCCCCCCCCC(=O)O | 4.7 | 
104 | OCCc1ccncc1 |  | 5.68
105 | Cc1cc(-c2cccc[nH+]2)nn1C |  | -1.6
106 | Nc1nnnn1Cc1ccccc1 |  | 1.44
107 | CCCCN(C(=O)c1ccc(O)cc1)c1ccc(/N=N/c2ccc3c(c2)OCCOCCOCCOCCOCCO3)cc1 | 9.12 | 
108 | Cc1n[nH]c2c(Nc3ccccc3)ncnc12 |  | 4.61
109 | CC(C)(Cl)C(=O)O | 2.97 | 
110 | COC(=O)c1ccccc1S | 6.3 | 
111 | Nc1ccc(NS(=O)(=O)c2ccccc2)cc1 | 9.05 | 
112 | CCC(C)C(=O)CCN1CCOCC1 (configuration not stated) |  | 7.07
113 | O=C(C[n+]1cccc2c3ccccc3ccc21)c1ccccc1 | 11.3 | 
114 | Oc1cc[n+](O)cc1 | 2.4 | 
115 | OCc1ccccc1O | 9.92 | 
116 | O=C(O)c1ccc2cc3ccccc3cc2c1 | 4.18 | 
117 | O=C(O)c1cccc(F)c1 | 3.9 | 
118 | CC(=O)NS(=O)(=O)c1ccccc1C(=O)O | 3.1 | 

Source: the pKa sets of Baltruschat and Czodrowski (2020)
